Data from US4868195A, “Novel enolamides, pharmaceutical compositions and methods of use thereof for activity as modulators of the arachidonic acid cascade” (Warner-Lambert Company, priority 1988, dated 1989).
“And” between values parts separate entries of the source, which are not always exact repeats. Identical values can stand only once.

Key:
[1] = target: T1, human leukocyte 5-lipoxygenase (Homo sapiens, UniProt P09917); assay: 5-lipoxygenase inhibition in human leukocytes, 5-HETE formation (5LOA; methods 5LOA1 and 5LOA2); format: cell-based; settings: 5-HETE formation, human leukocytes; read-out: Concentration (M) for 50.0 % Inhibition, IC (5LOA)
T1 construct: endogenous in cells; host or cells: intact leukocytes isolated from human blood
T1 sequence (P09917 1-674): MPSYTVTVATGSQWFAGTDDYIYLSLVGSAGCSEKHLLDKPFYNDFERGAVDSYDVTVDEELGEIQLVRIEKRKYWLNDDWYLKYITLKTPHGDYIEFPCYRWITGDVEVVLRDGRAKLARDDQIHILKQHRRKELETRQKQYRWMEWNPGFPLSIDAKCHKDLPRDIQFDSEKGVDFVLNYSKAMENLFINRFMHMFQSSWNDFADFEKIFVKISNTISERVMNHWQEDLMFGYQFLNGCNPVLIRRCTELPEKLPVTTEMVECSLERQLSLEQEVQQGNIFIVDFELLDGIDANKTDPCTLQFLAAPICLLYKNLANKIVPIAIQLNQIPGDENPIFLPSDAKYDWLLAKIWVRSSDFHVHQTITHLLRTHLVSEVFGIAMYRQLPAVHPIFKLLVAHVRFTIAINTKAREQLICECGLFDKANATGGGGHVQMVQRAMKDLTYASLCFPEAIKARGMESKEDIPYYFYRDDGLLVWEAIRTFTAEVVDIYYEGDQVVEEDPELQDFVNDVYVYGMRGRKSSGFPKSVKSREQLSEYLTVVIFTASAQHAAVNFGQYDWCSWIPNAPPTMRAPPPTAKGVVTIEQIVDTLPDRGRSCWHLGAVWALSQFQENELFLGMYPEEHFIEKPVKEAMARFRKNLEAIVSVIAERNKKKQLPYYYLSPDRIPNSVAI
Text: To Evaluate the Effect of Each Compounds as a 5-Lipoxygenase Inhibitor in Comparison to Standard Reference Agents in Human Leukocytes (5LOA1)
The purpose of this assay is to evaluate the activity of each compound as an inhibitor of human leukocyte 5-lipoxygenase.
Arachidonic acid and calcium ionophore A23187 are obtained from Sigma (St. Louis, MO). Silica gel plates, GF are obtained from Analtech (Newark, DE). Arachidonic acid, (1-^14 C) and 5-HETE (^3 H), 5 (S)-hydroxy-6-trans,8,11,14-cis eicosatetraenoic acid, are obtained from New England Nuclear (Boston, MA). Six percent Dextran-70 in 0.9% NaCl is obtained from Cutter Labs (Berkeley, CA).
Preparation of Leukocytes
Fresh blood from normal adult men who had not received any drugs for at least the previous five days is obtained by the Community Research Clinic (WL/PD) using venipuncture and collected into heparinized vacuotainer tubes. To every 100 ml of pooled blood is added 25 ml of dextran solution (6% dextran -70 in 0.9% sodium chloride containing 3% dextrose) and this is mixed gently in a plastic cylinder. The mixture is left to stand at room temperature for at least 90 minutes. The upper layer which is rich in leukocytes and platelets is then carefully decanted into 50 ml plastic tubes and centrifuged at about 100×g for eight minutes in an IEC centrifuge and rotor number 269 (about 600 rpm). The supernatant fluid is discarded and the pellet is resuspended in 10 ml of 0.87% ammonium chloride for exactly two minutes. This procedure is to lyse completely contaminating red blood cells. Leukocytes are then separated by centrifugation for ten minutes. The pellet is washed three times by suspension in 20 ml PBS (sodium chloride, 7.1 g; Na2 HPO4, 1.15 g; KH2 PO4, 0.2 g, and KCl, 0.2 g/L) and centrifuged as before. The final pellet is suspended in PBS containing 0.87 mM CaCl2. Viability of the cells is then checked using trypan blue exclusion method and is found to be over 90%.
5-Lipoxygenase Enzyme Assay
Leukocyte cells in suspension (0.98 ml) are incubated with or without test compounds for five minutes at 37° C. in a shaking water bath. At this time a 17 μl mixture is prepared per 1 ml of cell suspension: 100 mM arachidonic acid, 1 μl, 0.05 μCi ^14 C-arachidonic acid in 5 μl; 1 mM calcium ionophore A23187, 10 μl (1). This mixture is added and the incubation continued for five minutes. The reaction is stopped by adding four volumes of absolute ethanol and the mixture is kept in ice for 30 minutes. The floculated precipitate is separated by centrifugation at about 37,000×g for 20 minutes (Beckman Instruments rotor number 40). The alcohol extract is taken to dryness under a stream of nitrogen and the residue is dissolved in 100-200 μl absolute ethanol. At the time any turbidity is removed by centrifugation. An aliquot (25-50 μl) is applied onto 20×20 cm silica gel TLC plate and developed using the following solvent system: diethyl ether, petroleum ether (2040° C.), acetic acid (50:50:1 v/v). Zones of 1 cm apart are scraped from the TLC plate and transferred to mini-vials. Methanol (0.5 ml) is added to dissolve the radioactivity adsorbed to the silica gel and scintillation fluid (H. P., Beckman), 5 ml is then added and vials are counted in a liquid scintillation counter. A sample of ^3 H-5-HETE is applied and used for the identification of the formed 5-HETE.
Total radioactivity in the test as well as the control samples are normalized and the amount of 5-HETE present is calculated accordingly.
IC50 values are defined as the concentrations of test agents which caused a 50% inhibition of the formation of 5-HETE as compared to control and are determined by inspection of the concentration-response curves.
5-Lipoxygenase Assay Using Isolated Human Leukocytes (5LOA2)
The formation of 5-HETE in human leukocytes is considered a measure of 5-lipoxygenase activity. The protocol is described in the following. […]

[2] = target: Human Leukocyte Lipoxygenase; assay: Human Leukocyte Lipoxygenase Assay (LDA-H); format: biochemical; settings: for IC50: acetone-pentane powder enzyme, 234 nm, 24° C., 5 min preincubation, read-out: Concentration (M) for 50.0 % Inhibition, IC (LDAH)
Protocol: Human Leukocyte Lipoxygenase Assay (LDA-H)
Whole blood is collected from normal volunteers and spun in a refrigerated centrifuge for four minutes at 1°-6° C. at 3800 g. The buffy coat is manually separated and washed twice with chilled 0.83% NH4 Cl and centrifuged at 1000 RPM for ten minutes at 4° C. The white cell is suspended in culture media-EMEM supplemented with 6% Agamma human serum, tricine buffer, and neomycin and recentrifuged at 1000 g to yield a pellet containing the leukocytes used for the preparation of the acetone pentane powder.
The acetone-pentane powder is prepared utilizing a modification of the procedure reported for human platelet lipoxygenase. See Siegel, et al, Arachidonate Metabolism via Lipoxygenase and 12-L-hydroperoxy-5 Eicosatetraenoic Acid Peroxidase Sensitive to Antiinflammatory Drugs, Proc. Natl. Acad. Sci., USA 77: 308, 1980 and D. P. Wallach and V. R. Brown, A Novel Preparation of Human Platlet Lipoxygenase, Biochem. Biophys. Acta. 663: 361, 1981. Buffy coat prepared above is resuspended in 5-7 volumes of cold 0.1M Tris buffer, pH 7.4 containing 0.154M NaCl. The suspension is centrifuged at 13,300 g for ten minutes at 4° C. The resultant pellet is retained, resuspended in five volumes of cold acetone, recentrifuged at 13,300 g and resuspended in five volumes of cold pentane. The pentane suspension is centrifuged for ten minutes at 13,300 g to give a pellet which is dried in the cold under vacuum with periodic pulverization. The dry powder is stable for several weeks when stored at -80° C.
Enzyme stock solution is prepared in the following manner. About 15 mg of the acetone-pentane powder is suspended in 4 ml of cold tris buffer (0.1M, pH 7.4), allowed to stand for five minutes, and homogenized thoroughly. The homogenate is sonicated three times for 15 seconds each time, diluted to 7 ml with cold tris buffer (0.1M, pH 7.4), and centrifuged at 4° C. for 60 minutes at 13,300 g. the supernatent is retained and diluted to a total of 10 ml with cold tris buffer (0.1M, pH 7.4) to give the stock enzyme solution. Additional dilutions of 2-50 fold are done as necessary to locate optimal enzyme reaction rate in the assay described below.
Substrate solution is prepared at 100 μM or 1.0 μM concentrations of arachidonic acid or linoleic acid in 0.1M tris buffer, pH 9.0 containing 20% ethanol.
The enzyme reaction is followed spectrophotometrically by the appearance of a conjugated diene product at 234 nm. The reaction is monitored at 24° C. using a Gilford Model 2600 spectrophotometer. […] The effects of inhibitors on the reaction are compared with control reactions run under indentical conditions. Routinely, each compounds of the present invention is incubated with the enzyme for five minutes prior to addition of substrate to initiate the reaction. Inhibition expressed as IC50 as molar concentration of the compound required to reduce reaction rate to 50% control.

[3] = target: T2, leukotriene receptor (guinea pig lung membranes) (Cavia porcellus, UniProt Q2NNR5); assay: Binding of ^3 H-Leukotriene D4 to Guinea Pig Lung Membranes (RBL); settings: 0.2 nM ^3 H-LTD4, 60 min, 25° C.; read-out: Concentration (M) for 50.0 % Inhibition, IC (RBL)
T2 construct: 20 mg original tissue wet weight of guinea pig lung; tissue Kuiper Rabbit Farm, Gary, IN (animals); host or cells: guinea pig lung, crude membranes
T2 sequence (Q2NNR5 1-340): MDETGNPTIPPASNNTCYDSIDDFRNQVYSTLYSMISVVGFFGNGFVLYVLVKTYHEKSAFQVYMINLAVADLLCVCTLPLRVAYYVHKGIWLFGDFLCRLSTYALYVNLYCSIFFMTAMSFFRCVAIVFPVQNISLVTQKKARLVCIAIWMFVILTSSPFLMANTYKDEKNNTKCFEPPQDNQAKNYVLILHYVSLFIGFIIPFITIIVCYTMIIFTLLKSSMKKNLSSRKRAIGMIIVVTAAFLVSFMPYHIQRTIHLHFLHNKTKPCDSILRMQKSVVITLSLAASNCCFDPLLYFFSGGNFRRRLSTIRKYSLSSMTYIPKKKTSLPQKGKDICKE
In short: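 Crude lung membranes from 300 g male guinea pigs (20 mg tissue/ml) were incubated in triplicate with 0.2 nM ³H-LTD4 in 50 mM Tris pH 7.7, 10 mM MgCl2, 1% DMSO for 60 min at 25 °C. Bound ligand was collected by GF/B filtration and scintillation counting; nonspecific binding defined with 100 nM LTC4.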

`O=C(Nc1ccc(CCc2ccc(O)c(O)c2)cc1)C(=O)C1=C(O)c2ccccc2S(=O)(=O)C1` [Example 6, N-[4-[2-(3,4-Dihydroxyphenyl)ethyl]phenyl]-4-hydroxy-α-oxo-2H-1-benzothiopyran-3-acetamide, 1,1-dioxide] was tested, and the IC50 [1] was 2e-05 M and 2.1e-05 M.

Molecule `COc1cc(CCc2ccc(NC(=O)C3=C(O)c4ccccc4S(=O)(=O)C3)cc2)ccc1O` [Example 70, 2H-1-Benzothiopyran-3-carboxamide, 4-hydroxy-N-[4-[2-(4-hydroxy-3-methoxyphenyl)ethyl]phenyl]-, 1,1-dioxide] has an IC50 [1] of 5e-06 M.

Molecule `O=C(Nc1ccc(CCc2cc(Cl)cc(Cl)c2)cc1)C1=C(O)c2ccccc2S(=O)(=O)C1` [Example 71, 2H-1-Benzothiopyran-3-carboxamide, N-[4-[2-(3,5-dichlorophenyl)ethyl]phenyl]-4-hydroxy-, 1,1-dioxide] has an IC50 [2] of 0.0002 M and an IC50 [3] of 7.46e-06 M.

Molecule `O=C(Nc1ccc(CCc2ccc(Cl)cc2Cl)cc1)C1=C(O)c2ccccc2S(=O)(=O)C1` [Example 72, 2H-1-Benzothiopyran-3-carboxamide, N-[4-[2-(2,4-dichlorophenyl)ethyl]phenyl]-4-hydroxy-1,1-dioxide] has an IC50 [2] of 2.6e-06 M and an IC50 [3] of 3.5e-06 M.

With `O=C(Nc1ccc(CCc2cccc(O)c2)cc1)C1CS(=O)(=O)c2ccccc2C1=O` (centres unmarked) [Example 82] the “% Inhibition (LDAH)” value ([2]; Concentration 8.00 E -5 M) was 0.0% and the IC50 [3] was 3.95e-05 M.

With `COc1cc(C=Cc2ccc(NC(=O)C3=C(O)c4ccccc4S(=O)(=O)N3C)cc2)ccc1O` [Example 87, 2H-1,2-Benzothiazine-3-carboxamide, 4-hydroxy-N-[4-[2-(4-hydroxy-3-methoxyphenyl)ethenyl]phenyl]-2-methyl, 1,1-dioxide] the IC50 [1] was 4e-07 M.

In the case of `COc1cc(CCc2ccc(NC(=O)C3Oc4ccc5ccccc5c4C3=O)cc2)ccc1O` (centres unmarked) [Example 110, Naphtho[2,1-b]furan-2-carboxamide, N-[4-[2-(4-hydroxy-3-methoxyphenyl)ethyl]phenyl]-1,2-dihydro-1-oxo], the IC50 [1] is reported as 6.04e-06 M and 6.35e-06 M.

With `O=C(Nc1ccc(CCc2ccc(O)c(O)c2)cc1)C(=O)C1Oc2ccccc2C1=O` (stereo not drawn) [Example 126, 2-Benzofuranacetamide, N-[4-[2-(3,4-Dihydroxyphenyl)ethyl]phenyl]-2,3-dihydro-α,3-dioxo-] the IC50 [1] was 3.55e-06 M and 2.17e-06 M.

`O=C(Nc1ccc(CCc2ccc(O)c(O)c2)cc1)C(=O)c1sc2ccccc2c1O` [Example 134, N-[4-[2-(3,4-Dihydroxyphenyl)ethyl]phenyl]-3-hydroxy-α-oxo-benzo[b]thiophene-2-acetamide] gave an IC50 [2] of 8.2e-06 M and an IC50 [3] of 6.88e-05 M.

`O=C(Nc1ccc(CCc2ccc(O)c(O)c2)cc1)C(=O)c1sc2ccc(Cl)cc2c1O` [Example 138, Benzo[b]thiophene-2-acetamide, 5-chloro-N-[4-[2-(3,4-dihydroxyphenyl)ethyl]phenyl]-3-hydroxy-α-oxo] showed an IC50 [2] of 3.3e-05 M and an IC50 [3] of 0.000113 M.

`O=C(Nc1ccc(CCc2ccc(Cl)cc2)cc1)c1sc2ccccc2c1O` [Example 145, Benzo[b]thiophene-2-carboxamide, N-[4-[2-(4-chlorophenyl)ethyl]phenyl]-3-hydroxy] showed an IC50 [1] of 1.21e-05 M.

`COc1ccc2c(c1)c1c(n2-c2ccccc2)C(=O)C(C(=O)Nc2ccc(CCc3ccc(OC)c(OC)c3)cc2)O1` (centres unmarked) [Example 158] was tested, and the IC50 [1] was 4.8e-06 M.
